This experiment deals with pAMPK. Nature of the experiment: pAMPK immunostaining chemiluminescence assay in Beas2B cells. Type of experiment: cell-based. The settings on record: Homo sapiens, BEAS-2B, 18 h, DMEM no glucose media, compounds 3-34, 36-44, 47-60 tested as HCl salts, read-out: efficacy (minimal compound concentration needed to increase pAMPK by 30%). As to the method: Beas2B cells were plated in 384 white nunc plate (4000 cells per well) for overnight. Compounds were serially diluted in DMEM no glucose media using the liquid handler. Cells were washed once using Biotek EL406 before compound addition for additional 18 hours. Cells were washed and fixed with PFA before immunostained with pAMPK primary antibody and anti-Rabbit HRP secondary antibody. Finally, 25 μl of ECL reagent will be added to cells, and chemical luminescence signal will be counted using plate reader. Compounds efficacies (μM) were determined by the minimal compound concentration needed to increase pAMPK by 30%. Activity: “+” equals >10 μM; “++” equals between ≤10 μM and >1 μM; and “+++” equals ≤1 μM.

For `Cn1ccnc1C1Cc2ccccc2CN1CCCOc1ccc(C(F)(F)F)cc1` (centres unmarked) [compound 175], the EC (30% increase) was no more than 1 µM.
`[2H]C(C)(c1cccnc1)N(Cc1ccccc1C)CC(O)COc1ccc(C(F)(F)F)cc1` (centres unmarked) [compound 177]: the EC (30% increase) is greater than 10 µM.
The value for `Cc1ccccc1CN(CC(O)COc1ccc(C(F)(F)F)cc1)C(=O)c1ccccc1` (centres unmarked) [compound 66] was no more than 1 µM.
Regarding `Cc1ccccc1CN(CCCOc1ccc(C(F)(F)F)cc1)Cc1nccn1C` [compound 105], the EC (30% increase) is no more than 1 µM.
Under `Cc1ccccc1CN(Cc1cncs1)CC(O)COc1ccc(C(F)(F)F)cc1` (centres unmarked) [compound 40] stands no more than 1 µM.
With `OC(COc1ccncc1)CN(Cc1ccccc1)Cc1ccccc1` (centres unmarked) [compound 17], the EC (30% increase) was greater than 10 µM.
Take `Cc1ccccc1CN(Cc1cnn(C)c1)CC(O)COc1ccc(C(F)(F)F)cc1` (centres unmarked) [compound 38]: the EC (30% increase) lay within 1 to 10 µM.
For `Cc1ccccc1CN(CC(O)COc1ccc(C(F)(F)F)cc1)C(=O)c1c[nH]nc1C` (centres unmarked) [compound 89], the EC (30% increase) was in the range of 1 to 10 µM.
Regarding `[2H]C1(c2cncs2)c2ccccc2CCN1CC(O)COc1ccc(C(F)(F)F)cc1` (centres unmarked) [compound 94], the EC (30% increase) is 1 to 10 µM.
As to `CC(=O)OC(COc1ccc(C(F)(F)F)cc1)C(=O)N(Cc1cccnc1)Cc1ccccc1Cl` (centres unmarked) [compound 127], the EC (30% increase) is no more than 1 µM.
As for `CC(c1cccnc1)N(Cc1ccccc1Cl)CC(O)COc1ccc(C(F)(F)F)cc1` (centres unmarked) [compound 138], the EC (30% increase) is greater than 10 µM.
For `OC(COc1ccc(C(F)(F)F)cc1)CN1Cc2ccccc2CC1c1ccccc1` (centres unmarked) [compound 20], the EC (30% increase) fell in the range of 1 to 10 µM.
The value for `CN(CC(O)COc1ccc(C(F)(F)F)cc1)CC(c1ccccc1)c1ccccc1` (centres unmarked) [compound 11] was 1 to 10 µM.
Take `OC(COc1ccc(C(F)(F)F)cc1)CN1Cc2ccccc2C[C@@H]1c1cccnc1` (some centres unmarked) [compound 129]: the EC (30% increase) was no more than 1 µM.
Regarding `CC(C)(COc1ccc(C(F)(F)F)cc1)CN(Cc1cccnc1)Cc1ccccc1C(F)(F)F` [compound 197], the EC (30% increase) is no more than 1 µM.
On to `O=C(c1cncs1)N(Cc1ccccc1Cl)CC(O)COc1ccc(C(F)(F)F)cc1` (centres unmarked) [compound 90], for which the EC (30% increase) was no more than 1 µM.
As to `Cc1ncccc1CN(Cc1cccnc1C)CC(O)COc1ccc(C(F)(F)F)cc1` (centres unmarked) [compound 30], the EC (30% increase) lay within 1 to 10 µM.
With `Cn1ccnc1CN(CCOc1ccc(C(F)(F)F)cc1)Cc1ccccc1Cl` [compound 157], the EC (30% increase) is no more than 1 µM.
Turning to `CC(C)(COc1ccc(C(F)(F)F)cc1)CN(Cc1cccnc1)Cc1ccccc1F` [compound 185], the EC (30% increase) is no more than 1 µM.
Under `Cn1cncc1C(=O)N(CCCOc1ccc(C(F)(F)F)cc1)Cc1ccccc1Cl` [compound 125] stands no more than 1 µM; under `FC(F)(F)c1ccc(OCCCN2Cc3ccccc3CC2c2cccnc2)cc1` (centres unmarked) [compound 65], no more than 1 µM.
Regarding `Cc1ccccc1CN(Cc1cccnc1)C(=O)C(O)COc1ccc(C(F)(F)F)cc1` (centres unmarked) [compound 117], the EC (30% increase) was 1 to 10 µM.
Regarding `O[C@@H](COc1ccc(C(F)(F)F)cc1)CN1CCc2ccccc2[C@@H]1c1ccccc1` [compound 112], the EC (30% increase) was no more than 1 µM.
For the compound `Cc1ccncc1CN(Cc1cccnc1C)CC(O)COc1ccc(C(F)(F)F)cc1` (centres unmarked) [compound 32], the EC (30% increase) was no more than 1 µM.
For the compound `CC(C)(COc1ccc(C(F)(F)F)cc1)CN(Cc1cccnc1)Cc1cccnc1` [compound 184], the EC (30% increase) is no more than 1 µM.
On to `Cc1ccccc1CN(Cc1ccccc1)CC(O)COc1ccc(C(F)(F)F)cc1` (centres unmarked) [compound 5], for which the EC (30% increase) is 1 to 10 µM.
With `Cc1ccccc1CN(Cc1ccc(=O)[nH]c1)CC(O)COc1ccc(C(F)(F)F)cc1` (centres unmarked) [compound 59], the EC (30% increase) fell in the range of 1 to 10 µM.
Turning to `O[C@H](COc1ccc(C(F)(F)F)cc1)CN1CCc2ccccc2[C@H]1c1ccccc1` [compound 115], the EC (30% increase) was 1 to 10 µM.
The value for `Cc1cccc(C)c1OCC(O)CN(Cc1ccccc1)Cc1ccccc1` (centres unmarked) [compound 18] was no more than 1 µM.
